Data: paper PMC9786284, “Synthesis and Antiproliferative Effect of Halogenated Coumarin Derivatives” (Molecules, 2022)

Experiments:
MTT cell viability assay = assay type: cell-based; details: human, MTT, 24 h, concentration required to inhibit cell proliferation by 50%, mean ± SD
Procedure: (§1) The cytotoxic effect of coumarins 2a–k was tested on several cancer and normal cell lines: lung cancer cell line (SK-MES-1), thyroid cancer cell lines (K-1; B-CPAP ant TPC-1), lung fibroblast (MRC-5) and thyroid normal cell line (Nthy-ori-3-1) by MTT (3-[4,5-dimethylthiazol-2-yl]-2,5 diphenyltetrazolium bromide) assay.
(§2) The papillary thyroid carcinoma (PTC)-derived cell lines (TPC-1 and B-CPAP) were kindly provided by Dr. Fusco (Medical School, University Federico II of Naples, Naples, Italy). K-1 PTC-derived cell line and non-tumorigenic thyroid Nthy-ori-3-1 cell line were purchased from Health Protection Agency Culture Collections. The PTC-derived cell lines were maintained in DMEM/F12 (Gibco-BRL. Life Technologies, Milan, Italy)] supplemented with 10% fetal bovine serum (Gibco-BRL) at 37 °C in humidified 5% CO2. SK-MES-1 and MRC-5 were purchased from American Type Culture Collection (ATCC) and were maintained in Mem-E medium, supplemented with 10% fetal bovine serum, 100 units/mL penicillin G, and 100 μg/mL streptomycin (Gibco-BRL) at 37 °C in humidified 5% CO2.
(§3) The effect of test compounds on the viability of cells was detected by MTT assay. The thyroid cells (7.5 × 10^3 cells/mL), SK-MES-1, and MRC-5 (8 × 10^4 cells/mL) were seeded into a 96-well plate and allowed to adhere for 16 h to culture plates before the addition of the compounds.
(§4) Then, compounds were added at different concentrations (0.8–100 μM), and cells were further incubated for 24 h. Cells with no treatment were used as a negative control. After incubation, cells were treated with MTT solution for 3 h at 37 °C. Then, the MTT solution was removed, and 150 µL of DMSO was added to the wells. The absorbances were measured at 570 nm using a TECAN microplate reader (Infinite 200, Tecan, Salzburg, Austria). Viability data were reported as % of control (untreated cells) for each cell line.

[1] = tested on: B-CPAP thyroid cancer cell line; assay: MTT cell viability assay; assay type: cell-based; details: Homo sapiens, BCPAP; B-CPAP; MTT, 24 h; concentration required to inhibit cell proliferation by 50%; mean ± SD; read-out: CC50
Procedure: as §1, §2, §3, §4

[2] = tested on: K-1 thyroid cancer cell line; assay: MTT cell viability assay; assay type: cell-based; details: K-1; MTT, 24 h; concentration required to inhibit cell proliferation by 50%; mean ± SD; read-out: CC50
Procedure: as §1, §2, §3, §4

[3] = tested on: SK-MES-1 lung cancer cell line; assay: MTT cell viability assay; assay type: cell-based; details: Homo sapiens; SK-MES-1; MTT, 24 h; concentration required to inhibit cell proliferation by 50%; mean ± SD; read-out: CC50
Procedure: as §1, §2, §3, §4

[4] = tested on: TPC-1 thyroid cancer cell line; assay: MTT cell viability assay; assay type: cell-based; details: Homo sapiens, TPC1; TPC-1; MTT, 24 h; concentration required to inhibit cell proliferation by 50%; mean ± SD; read-out: CC50
Procedure: as §1, §2, §3, §4

[5] = tested on: Nthy-ori-3-1 normal thyroid cells; assay: Annexin V-FITC/PI apoptosis assay by flow cytometry; assay type: cell-based; details: 20 μM, 24 h
Procedure: (§5) To determine whether the two studied coumarins 2k and 2h, induce cell death through apoptosis or necrosis, we performed double staining with fluorescent Annexin V-FITC/propidium iodide (PI) apoptosis detection kit in TPC-1 and Nthy-ori-3-1 as control cells. This assay is based on the ability of Annexin to recognize phosphatidylserine (PS), a membrane phospholipid exposed on the cell surface of apoptotic cells, while PI is able to bind the DNA of necrotic cells. Thanks to this combination, […] cell populations are obtained: cells negative for Annexin V-FITC and PI indicate live cells, Annexin V-FITC-positive/PI-negative and Annexin V-FITC-positive/PI-positive indicate early and late apoptotic cells, while cells negative for Annexin V-FITC and PI-positive are necrotic.
(§6) To investigate cell death induced by coumarins treatment, a flow cytometric analysis using the cell apoptosis kit Annexin V/propidium iodide (PI) double staining uptake (Life Technologies, Monza, Italy) was employed. Control and PTC-derived cells, at the density of 5 × 10^4 cells/mL, were seeded in 6-well plates (Corning) with complete DMEM/F12. First, the cells were treated with 20 µM of coumarins for 24 h. Cells were washed once with PBS 1X and stained according to the kit’s protocol. Stained cells were then analyzed by flow cytometry, measuring the fluorescence emission at 530 and 620 nm using a 488 nm excitation laser (MoFloAstrios EQ, Beckman Coulter). Cell apoptosis was analyzed using Software Summit Version 6.3.1.1, Beckman Coulter.

TPC-1 cells = assay: as above; assay type: cell-based; details: for total apoptotic cells: 20 μM, 24 h, untreated cells 10%; for viability at 20 µM: Homo sapiens, TPC1, 24 h, untreated cells 87%, read-out: viable cells
Procedure: as §5, §6

Nthy-ori-3-1 cells = assay: Cell cycle analysis by flow cytometry (PI/RNase staining); assay type: cell-based; details: control cells (Nthy-ori-3-1); 20 µM, 24 h
[6] = Cyclic voltammetry in anhydrous acetonitrile; assay type: physicochemical; details: 100 mV s−1, Pt pseudo-reference (Fc+/0 at +0.45 V)
Procedure: It has been reported that coumarins and their derivatives are able to regulate the reactive oxygen species (ROS). For example, esculetin induces cytotoxicity in pancreatic cancer cells decreasing ROS and protein levels of the ROS-dependent transcription factor NF-κB [49]. On the other end, coumarins induce the generation and accumulation of ROS in cancer cells causing cell cycle arrest and apoptotic cell death. […] Conversely, 2h produces an antiproliferative response in TPC-1 cells by scavenging ROS. In an attempt of a better understanding of the results, such compounds were explored from an electrochemical point of view by means of cyclic voltammetry in anhydrous acetonitrile.
The electrochemical properties of compounds 2h and 2k were investigated by cyclic voltammetry (CV) technique under an inert atmosphere. The measurements have been carried out at 100 mV s^−1 with a three-electrode cell using a platinum tip as a working electrode, a platinized titanium net as a counter electrode, and a platinum wire as a pseudo-reference electrode. The electrochemical measurements were performed at room temperature using an AUTOLAB PGSTAT302N (Metrohm, Herisau, Switzerland) potentiostat/galvanostat controlled with the NOVA software. All the solutions were prepared in anhydrous degassed acetonitrile with 0.1 M [n-Bu4N][PF6] as supporting electrolyte: in this condition, the Fc^+/0 redox couple is centered at +0.45 V.

[7] = Nthy-ori-3-1 normal thyroid cells, Nthy-ori-3-1

| SMILES | CC50 at 24 h (MTT cell viability assay; MRC-5 lung fibroblasts, MRC-5) [µM] | CC50 at 24 h (MTT cell viability assay; [7]) [µM] | CC50 [1] [µM] | CC50 [2] [µM] | CC50 [3] [µM] | CC50 [4] [µM] | induction of apoptosis [5] | total apoptotic cells (TPC-1 cells) [%] | viability at 20 µM (TPC-1 cells) [%] | effect on the cell cycle (Nthy-ori-3-1 cells) | oxidation peak potential [6] [V] | reduction feature potential [6] [V] |
| --- | --- | --- | --- | --- | --- | --- | --- | --- | --- | --- | --- | --- |
| N#Cc1cc2cc(Br)cc(Br)c2oc1=O [2h, 6,8-dibromo-2-oxo-2H-chromene-3-carbonitrile] | > 100 | > 100 | > 100 | 60 ± 3 | > 100 | 90 ± 3.5 | No significant induction of apoptosis | 18 | 77.7 | No effect on the cell cycle | 0.6 | −1.02 |
| N#Cc1cc2cc(I)cc(I)c2oc1=O [2k, 6,8-diiodo-2-oxo-2H-chromene-3-carbonitrile] | > 100 | > 100 | 46 ± 0.2 | 57 ± 5 | > 100 | 44 ± 5.5 | No significant induction of apoptosis | 34 | 62 | No effect on the cell cycle | 0.75 | −0.95 |
